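Protocol summary: plate cells (96-well), add compound at 5 concentrations, incubate 48 h, interpolate endpoints linearly. TGI: concentration producing complete growth inhibition.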
Key:
Test in all cases: NCI-60 cell line screen, 48 h
A498 renal = tested on: A498 renal
ACHN renal = tested on: ACHN renal
DMS 114 small cell lung = tested on: DMS 114 small cell lung
HT29 colon = tested on: HT29 colon
IGROV1 ovarian = tested on: IGROV1 ovarian
MALME-3M melanoma = tested on: MALME-3M melanoma
MOLT-4 leukemia = tested on: MOLT-4 leukemia
NCI-H460 lung = tested on: NCI-H460 lung
NCI-H522 lung = tested on: NCI-H522 lung
SF-539 CNS = tested on: SF-539 CNS
SW-620 colon = tested on: SW-620 colon
U251 CNS = tested on: U251 CNS
UACC-257 melanoma = tested on: UACC-257 melanoma
UO-31 renal = tested on: UO-31 renal
SK-MEL-5 melanoma = tested on: SK-MEL-5 melanoma

| SMILES | TGI (A498 renal) [µM] | TGI (ACHN renal) [µM] | TGI (DMS 114 small cell lung) [µM] | TGI (HT29 colon) [µM] | TGI (IGROV1 ovarian) [µM] | TGI (MALME-3M melanoma) [µM] | TGI (MOLT-4 leukemia) [µM] | TGI (NCI-H460 lung) [µM] | TGI (NCI-H522 lung) [µM] | TGI (SF-539 CNS) [µM] | TGI (SW-620 colon) [µM] | TGI (U251 CNS) [µM] | TGI (UACC-257 melanoma) [µM] | TGI (UO-31 renal) [µM] | TGI (SK-MEL-5 melanoma) [µM] |
| --- | --- | --- | --- | --- | --- | --- | --- | --- | --- | --- | --- | --- | --- | --- | --- |
| CC(C)(C)NC(=O)NC12CC3CC(CC(F)(C3)C1)C2 | > 100 | > 100 | > 100 | > 100 | > 100 | > 100 | > 100 | > 100 | > 100 | > 100 | > 100 | > 100 | > 100 | > 100 | – |
| NC(=O)c1coc(C2OC(CO)C(O)C2O)n1 (stereo not given) | > 100 | > 100 | > 100 | > 100 | > 100 | > 100 | > 100 | > 100 | > 100 | > 100 | > 100 | > 100 | – | > 100 | – |
| Clc1ccccc1C1=NN(c2ccccc2)C2c3ccccc3OCC12 (stereo not given) | > 100 | > 100 | > 100 | > 100 | > 100 | > 100 | > 100 | > 100 | > 100 | – | > 100 | > 100 | > 100 | > 100 | > 100 |
| CCN1C[C@]2(C)CC[C@H](OC)C34C1C([C@H](OC(C)=O)[C@@H]32)[C@@]1(OC)C[C@H](OC)[C@H]2C[C@@H]4[C@@H]1[C@H]2O | > 100 | > 100 | > 100 | > 100 | > 100 | > 100 | > 100 | > 100 | > 100 | > 100 | > 100 | > 100 | > 100 | > 100 | > 100 |
| COc1ccc(C2Oc3cc(OC)c(O)c(C)c3[C@H]2C)cc1 (stereo not given in full) | > 100 | > 100 | > 100 | > 100 | > 100 | > 100 | 89.3 | > 100 | > 100 | > 100 | > 100 | > 100 | > 100 | 78 | > 100 |
| c1ccc(C2=NOC3(c4ccccc4)SC4CCCCC4CN23)cc1 (stereo not given) | > 100 | 70.9 | 30.5 | > 100 | 32.8 | > 100 | 51.3 | > 100 | 22.6 | 39.2 | > 100 | 37.6 | > 100 | > 100 | 28.7 |
| C=C1C(=O)OC2/C=C(/C)C3CC(O)C(C)(CC(OC(=O)/C(C)=C/C)C12)O3 (stereo not given) | 23.2 | 6.71 | 19.8 | 13.1 | 18.7 | 4.48 | > 26.8 | 18.3 | 6.12 | 4.86 | 3.46 | 25.3 | 17.6 | 18.3 | 16.2 |
| O=c1[nH]c2cc([N+](=O)[O-])ccc2nc1/C(=N/Nc1ccccc1)C(O)c1ccc(C(O)/C(=N\Nc2ccccc2)c2cnc3cc([N+](=O)[O-])ccc3n2)cc1 (stereo not given) | > 100 | > 100 | > 100 | > 100 | > 100 | > 100 | > 100 | > 100 | > 100 | > 100 | > 100 | – | > 100 | > 100 | > 100 |
